Laboratory results reported in US20210322622A1, “COMPOSITIONS AND METHODS FOR PREPARATION OF COMPOSITE POLYMER FILMS ON NON-CONDUCTING SUBSTRATES, INCLUDING BANDAGES, AND THEIR USE FOR TREATING WOUNDS” (The Johns Hopkins University, priority 2018, published 2021).

Tests used:
[1] = test system: S. aureus bioluminescent strain Xen36; assay: Mouse model of prosthetic joint infection (PJI): in vivo bioluminescence imaging and CFU; set-up: species or system mice; conditions: intravenous prophylaxis 110 mg/kg at −1 and 16 hours
Text: A previously established mouse model of a prosthetic joint infection (PJI) (Pribaz et al., 2012) was used to evaluate the efficiencies of the composite coatings in providing sustained in situ release and in vivo antimicrobial activity (FIG. 5A, FIG. 5B, FIG. 5C, FIG. 5D, FIG. 5E, FIG. 5F, FIG. 5G, FIG. 5H, FIG. 5I, FIG. 5J, FIG. 5K, and FIG. 5L). A medical-grade titanium K-wire (0.5 mm in diameter, 9 mm in length) coated with PLGA/PCL fiber coating ± antibiotics was surgically placed into the right distal femur of mice. Briefly, a medial parapatellar arthrotomy on the right knee was performed with lateral displacement of the quadriceps-patellar complex. […]
Noninvasive and longitudinal measurements of the bacterial burden were performed using in vivo bioluminescence imaging of the bioluminescent signals from live and actively metabolizing Xen36 bacteria at the site of infection in the post-operative knee joints of anesthetized mice over a 2-week course of infection using the IVIS Lumina III in vivo imaging system (PerkinElmer) on days 0, 1, 3, 5, 7, and 14. Data are presented on a color scale overlaid on a grayscale photograph of mice and quantified as maximum radiance (photons/second/cm^2/steradian) within a circular region of interest (1×10^3 pixels) using Living Image software. […]

[2] = In vitro release of antibiotics from PLGA/PCL composite coatings on titanium K-wires (HPLC); format: physicochemical; conditions: stored coated pins, two-week in vitro release
Method: The release rate of the polymer composite film was measured by HPLC. Drug release studies were conducted using coated pins created with the same loading parameters as those used for later in vivo testing (10% (w/w) drug combinations) electrospun for 60 seconds at injection rates of 0.5 mL/h from each needle. Release rate of antibiotics from the composite polymer coating was characterized by placing coated pins in 200 μL pH 7.4 PBS buffer and incubating at 37° C. in an aluminum film-covered incubator to prevent possible light-induced drug degradation. Release media was changed at fixed time points over a period of two weeks and stored in a −20° C. freezer until analysis. Drug concentrations in release media for each day were determined via reverse-phase HPLC using a C-18 column in an Alliance HPLC system and Waters 2996 PDA detector. The mobile phase was a mixture of acetonitrile and water both mixed with 0.1% TFA acid, which was run at a gradient from (15%/85%) to (40%/60%) for a total runtime of 15 minutes per sample for the elution of Van/Rif and Lin/Rif drug loading groups. Elution of the Dap/Rif loading group was conducted using a mobile phase of (49%/51%) of acetonitrile and water both mixed with 0.1% TFA acid for a total run time of 11 minutes per sample. Concentrations of the drugs were quantified using wavelengths of 343 nm for Rif, 254 nm for Lin, 280 nm for Van and 223 nm for Dap using prepared standard curves for all three drugs. […] Quantification was performed through the derivatization of Gentamicin with ninhydrin at 95° C. for 15 minutes and detection with a Biotek Synergy2 plate reader.
(§1) Long-term efficacy of the antimicrobial activity was tested by storing electrospun pins at room temperature for 6 weeks, −20° C. for 6 weeks, and −80° C. for 8 months. Coated pins were protected from light during storage. These pins were then used in the same zone of inhibition assay as described hereinabove.
Drug release studies were conducted using coated pins created with the same loading parameters as detailed above. Release kinetics of antibiotics from the composite coating were characterized by placing coated pins in 200 μL of phosphate buffer saline (PBS, pH 7.4) at 37° C. Release media was changed daily over a period of two weeks and stored at −20° C. until analysis. Drug concentrations in release media were measured on days 1, 2, 3, 5, 7, 10 and 14 using a Waters Alliance 2690 HPLC system (Waters Corporation, Milford, Mass.) equipped with an Accucore RP-MS C18 column (100 mm×2.1 mm; Thermo Fisher Scientific) and a Waters 2996 PDA detector. The elution was carried out with a mobile phase of water and acetonitrile both mixed with 0.1% TFA at a flow rate of 1 mL/min at ambient temperature using a linear gradient elution program of 85% water to […] in 15 minutes. Concentrations of the drugs were quantified using wavelengths for Van (280 nm), Lin (254 nm), Dap (224 nm) and Rif (263 nm).

S. aureus = assay: In vitro zone of inhibition assay of coated K-wires; format: cell-based, Staphylococcus aureus; conditions: 6 weeks room temperature, 6 weeks −20° C., 8 months
Text: A zone of inhibition assay was used as an additional assay to evaluate the in vitro release of antibiotic(s) from the composite coating. Tryptic soy agar bacterial plates were inoculated with S. aureus bacteria cells to yield a bacterial lawn after overnight culture. After bacterial inoculation and before culturing the plates, two identical titanium K-wires loaded with either 10 w/w % Lin, 10 w/w % Van, or 10 w/w % Dap alone, or in combination with Rif were placed in two separate areas on the plate. After culturing the plates at 37° C. for 24 hours, the antimicrobial activity of the eluded antibiotic(s) into the agar was measured as a zone of inhibition (diameter [mm]) of the bacterial growth around the K-wire.
as §1, with “hereinabove. These antimicrobial results were further confirmed with a two-week in vitro release study to determine release kinetics after storage.” for “hereinabove.”
Tryptic soy agar (TSA) bacterial plates were inoculated with S. aureus to yield a bacterial lawn after overnight culture. Before culturing the plates, two titanium K-wires each loaded with the same combination of antibiotics from each set were placed in two separate areas on the plate. After culturing at 37° C. for 24 hours, the zone of inhibition (ZOI) (diameter/mm) of bacterial growth were measured.

S. aureus strain Xen36 = assay: MIC of XEN36 for each antibiotic; format: cell-based, Staphylococcus aureus; conditions: Staphylococcus aureus, XEN36, read-out: MIC of XEN36
Method: S. aureus strain Xen36 (PerkinElmer, Waltham, Mass.) previously derived from the clinical bacteremia isolate ATCC 49525 (Wright) was used in all experiments. (Francis et al., 2000). […] (Francis et al., 2000). Xen36 was prepared for inoculation as previously described. (Niska et al., 2013; Pribaz et al. (2012)).

SMILES: CN[C@H](CC(C)C)C(=O)N[C@H]1C(=O)N[C@@H](CC(N)=O)C(=O)N[C@H]2C(=O)N[C@H]3C(=O)N[C@H](C(=O)N[C@H](C(=O)O)c4cc(O)cc(O)c4-c4cc3ccc4O)[C@H](O)c3ccc(c(Cl)c3)Oc3cc2cc(c3O[C@@H]2O[C@H](CO)[C@@H](O)[C@H](O)[C@H]2O[C@H]2C[C@](C)(N)[C@H](O)[C@H](C)O2)Oc2ccc(cc2Cl)[C@H]1O [Van, vancomycin]
- BLI signals [1]: decreased BLI signals
- CFU from bone/joint tissue and implants [1]: the infection was not cleared as CFU were readily detected
- release kinetics after storage [2]: no difference in the release kinetics
- antimicrobial activity (zone of inhibition) after storage versus freshly prepared coatings (S. aureus): no significant loss of antimicrobial activity
- MIC (S. aureus strain Xen36): 0.5 µg/mL
